Assays:
[1] = tested on: RhoA-ROCK signaling pathway; assay: RhoA activity, ROCK activity and MLC phosphorylation in HUVECs; assay type: cell-based, human
Description: RhoA activities were determined using a RhoA activation assay kit (BK036, Cytoskeleton). […] Cells were lysed and the cell lysates were incubated with the rhotekin beads (50 μg/sample) for 1 h at 4° C., washed two times, and eluted with Laemmli sample buffer. Bound RhoA, which is an active form of RhoA, was analyzed by SDS-PAGE separation followed by immunoblotting with an anti-RhoA antibody (ARH03, Cyto skeleton). The amount of total RhoA was also analyzed by immunoblotting using the same antibody in order to normalize the relative activity of RhoA.
ROCK activities were determined using a ROCK activity assay kit (CSA001, Millipore). HUVECs were lysed and cell lysates were incubated for 1 hr at room temperature in 96-well plates pre-coated with recombinant MYPT1, which contain Thr696 residue that can be phosphorylated by active ROCK. The plates were washed and incubated with anti-phospho-MYPT1 (Thr696) antibody followed by incubation with HRP-conjugated secondary antibody and HRP substrate reagent. The relative amount of active ROCK was measured by a microplate reader at 450 nm (Bio-Rad).
At the indicated time, tumor tissues or cultured HUVECs were homogenized in ice-cold lysis buffer containing a protease inhibitor cocktail (Roche). […] Chemiluminescent signals were developed with HRP substrate (Millipore) and detected with a LAS-1000 mini (Fuji film).

[2] = tested on: LLC tumor; assay: LLC tumor model, intratumoral necrosis and hemorrhage (H&E); assay type: in vivo, mouse; settings: RhoJ-KO mice treated with cisplatin compared to RhoJ-WT mice treated with cisplatin; 2 weeks after treatment
Description: To generate implantation tumor models, suspensions of tumor cells (1×10^6 cells in 100 μl) were SC injected into the dorsal flank of 8 to 10 weeks old mice. Tumor volumes were measured at given time points. Tumor volume was calculated according to the formula, 0.5×A×B^2, where A is the largest diameter of a tumor and B is its perpendicular diameter. Tumor growth rate is defined as increased tumor volume relative to 2 days before. Indicated days later, the mice were anesthetized and tissues were harvested for further analyses. […]
Density measurement of blood vessels, metastasis, hemorrhagic area, leakage area, and perfusion area were performed with ImageJ software (http://rsb.info.nih.gov/ij). For blood vessel density, CD31^+ area per random 0.42 mm^2 areas was measured in the peri- and intratumoral regions. To determine the amount of blood vessels that express RhoJ, GFP^+&CD31^+ area per CD31^+ area in five random 0.42 mm^2 areas were calculated. In addition, to find the percentage of CD31^+ endothelial cells within RhoJ-GFP expressing cells, the GFP^+&CD31^+ area per total GFP^+ area was also calculated. […] The area of cytokeratin^+ fluorescence was presented as % per total sectioned area of lymph node. […] The extent of hemorrhage was measured as a % of Ter-119^+ area per random 0.24 mm^2 areas. Vascular leakage was quantified as the dextran^+ area % per random 0.42 mm^2.

[3] = tested on: LLC tumor; assay: Intratumoral cisplatin-modified DNA area in LLC tumor; assay type: in vivo, mouse; settings: RhoJ-KO mice compared to RhoJ-WT mice
Description: (§1) LLC and B16F10 melanoma cells were obtained from American Type Culture Collection. To generate implantation tumor models, suspensions of tumor cells (1×10^6 cells in 100 μl) were SC injected into the dorsal flank of 8 to 10 weeks old mice. Tumor volumes were measured at given time points. Tumor volume was calculated according to the formula, 0.5×A×B^2, where A is the largest diameter of a tumor and B is its perpendicular diameter. Tumor growth rate is defined as increased tumor volume relative to 2 days before. Indicated days later, the mice were anesthetized and tissues were harvested for further analyses. Tamoxifen (4 mg/kg, 4 times every 2 days, Sigma-Aldrich) was IP injected into Cdh5(PAC)-Cre^ERT2;Rhor^fl/fl mice starting from the day before tumor implantation or after the tumor volume had exceeded 300 mm^3. Cisplatin (10 mg/kg, every 7 days, Sigma-Aldrich) is IP injected for cytotoxic chemotherapy when tumor volume exceeded 100 mm^3. VEGF-trap (25 mg/kg, indicated schedule) is SC injected as an AIA therapy. CA4P (50 mg/kg, every 2 days, Sigma-Aldrich) was IP injected as a VDA therapy. As a control, equal amounts of Fc or PBS was injected in the same manner. To knock down RhoJ in vivo, control or RhoJ siRNA (2 mg/kg, indicated schedule), which were encapsulated into aptEDB-LS complexes, were IV injected into tumor-bearing mice. […]

[4] = tested on: LLC tumor; assay: LLC implantation tumor model, tumor growth; assay type: in vivo, mouse; settings: for decrease of LLC tumor growth: RhoJ-WT mice; for maintenance of tumor growth response to CA4P: CA4P 50 mg/kg
Description: (§2) LLC and B16F10 melanoma cells were obtained from American Type Culture Collection. To generate implantation tumor models, suspensions of tumor cells (1×10^6 cells in 100 μl) were SC injected into the dorsal flank of 8 to 10 weeks old mice. Tumor volumes were measured at given time points. Tumor volume was calculated according to the formula, 0.5×A×B^2, where A is the largest diameter of a tumor and B is its perpendicular diameter. Tumor growth rate is defined as increased tumor volume relative to 2 days before. Indicated days later, the mice were anesthetized and tissues were harvested for further analyses. Tamoxifen (4 mg/kg, 4 times every 2 days, Sigma-Aldrich) was IP injected into Cdh5(PAC)-Cre^ERT2;Rhor^fl/fl mice starting from the day before tumor implantation or after the tumor volume had exceeded 300 mm^3. Cisplatin (10 mg/kg, every 7 days, Sigma-Aldrich) is IP injected for cytotoxic chemotherapy when tumor volume exceeded 100 mm^3. VEGF-trap (25 mg/kg, indicated schedule) is SC injected as an AIA therapy. CA4P (50 mg/kg, every 2 days, Sigma-Aldrich) was IP injected as a VDA therapy. As a control, equal amounts of Fc or PBS was injected in the same manner. To knock down RhoJ in vivo, control or RhoJ siRNA (2 mg/kg, indicated schedule), which were encapsulated into aptEDB-LS complexes, were IV injected into tumor-bearing mice.

[5] = tested on: LLC tumor vessels; assay: LLC tumor model, CD31+ tumor vessel density; assay type: in vivo, mouse; settings: for reduction of vascular density, intratumoral region / reduction of vascular density, peritumoral region: CA4P 50 mg/kg, 6 days after first treatment
Description: as §2
For hematoxylin and eosin (H&E) staining, tumors and indicated organs were fixed overnight in 4% paraformaldehyde (PFA). After tissue processing using standard procedures, samples were embedded in paraffin and cut into 3-1 μm sections followed by H&E staining. For immunofluorescence studies, samples were fixed in 1% PFA, dehydrated in 20% sucrose solution overnight, and embedded in tissue freezing medium (Leica). Frozen blocks were cut into 50-1 μm sections. Samples were blocked with 5% goat (or donkey) serum in PBST (0.03% Trition X-100 in PBS) and then incubated for 3 hr at room temperature (RT) with the following primary antibodies: anti-GFP (rabbit polyclonal, Millipore), anti-CD31 (hamster, clone 2H8, Millipore), anti-RhoJ (mouse, clone 1E4, Novus), anti-RhoJ (mouse, clone 1D7, OriGene), FITC-conjugated anti-c′-SMA (mouse, clone 1A4, Sigma-Aldrich), anti-VE-cadherin (rat, clone 11D4.1, BD Phamingen), anti-VE-cadherin (rabbit, clone D87F2, Cell Signaling), anti-PDGFRβ (rat, eBioscience), anti-Ter119 (rat, clone TER-119, eBioscience), anti-caspase-3 (rabbit polyclonal, R&D systems), anti-LYVE-1 (rabbit polyclonal, Angiobio), anti-pan-cytokeratin (mouse, clone AE1/AE3, Abcam), anti-melanin-A (rabbit polyclonal, Abcam), anti-collagen type IV (rabbit polyclonal, Cosmo Bio), or anti-cisplatin modified DNA (rat monoclonal, Abcam). After several washes, the samples were incubated for 2 hr at RT with the following secondary antibodies: FITC-, Cy3-, or Cy5-conjugated anti-hamster IgG (Jackson ImmunoResearch), FITC- or Cy3-conjugated anti-rabbit IgG (Jackson ImmunoResearch), Cy3-conjugated anti-rat IgG (Jackson ImmunoResearch), or Cy3-conjugated anti-mouse IgG (Jackson ImmunoResearch). Goat Fab fragment anti-mouse IgG (Jackson ImmunoResearch) was used to block endogenous mouse IgG to use mouse antibody on mouse tissues. F-actin was stained with acti-stain 555 phalloidin (Cytoskeleton). Nuclei were stained with 4′,6-diamidino-2-phenylindole (DAPI, Invitrogen). Then the samples were mounted with fluorescent mounting medium (DAKO) and immunofluorescent images were acquired using a Zeiss LSM510 confocal microscope (Carl Zeiss). To detect the hypoxic areas in the tumors, Hypoxyprobe-1™ (60 mg/kg, solid pimonidazole hydrochloride, Natural Pharmacia International) was IV injected 90 min before perfusion-fixation. The tumors were then harvested, sectioned, and stained with FITC-conjugated anti-Hypoxyprobe antibody.
Density measurement of blood vessels, metastasis, hemorrhagic area, leakage area, and perfusion area were performed with ImageJ software (http://rsb.info.nih.gov/ij). […]

[6] = tested on: HUVECs; assay: In vitro Matrigel tube formation assay; assay type: cell-based, human; settings: siJ-ECs (RhoJ knockdown) with CA4P 20 nM, 12 hr; compared to single treatment
Description: (§3) HUVECs were purchased from Lonza, cultured in endothelial growth medium (EGM-2, Lonza) and incubated in a humidified atmosphere with 5% CO2 at 37° C. The cells used were between passages 3 to 8. Transfections of siRNA duplexes into HUVECs were performed using Lipofectamine® RNAiMAX (Invitrogen) at a final concentration of 40 nM according to the manufacturer's protocol.
For matrigel tube formation assay, growth factor reduced Matrigel (BD bioscience) was thawed overnight at 4° C. The Matrigel was allowed to solidify on a 4-well culture dishes at 37° C. for 30 min. Cells were harvested and seeded at a density of 2×10^4 cells/well in growth media. Cells were then incubated at 37° C. for a further 12 hr. Tube formation was observed by taking pictures using a Leica DM IL microscope. The matrigel assays were quantified by counting the number of nodes and tubules from five different fields for each condition.

[7] = tested on: HUVECs; assay: In vitro vascular permeability assay (FITC-dextran across EC monolayer); assay type: cell-based, human; settings: siJ-ECs treated with CA4P (20 nM) compared to siC-ECs treated with PBS
Description: as §3
For in vitro vascular permeability assay, HUVECs were cultured on collagen-coated 1.0 μm-size pore insert (Millipore). After starvation for 12 hr, the cells were treated with or without VEGF (50 ng/ml) or CA4P (20 nM) for 2 hr and was then incubated with 70 kDa FITC-Dextran for 20 min. Each solution in plate wells were read with a Victor X2 multilabel plate reader.

[8] = tested on: LLC tumor; assay: LLC tumor model, cytokeratin+ metastasis to inguinal LNs; assay type: in vivo, mouse; settings: CA4P 50 mg/kg
Description: as §1

[9] = LLC implanted WT mice, en-siJ 2 mg/kg, VEGF-trap 25 mg/kg, 12 days after first treatment
[10] = RhoJ-KO mice, VEGF-trap 25 mg/kg, 9 days after first treatment
[11] = RhoJ-WT mice, VEGF-trap 25 mg/kg, 9 days after first treatment

C[C@@H](N)[C@H]1CC[C@H](C(=O)Nc2ccncc2)CC1 [Y-27632]
RhoA activity, ROCK activity and MLC phosphorylation increased in siJ-ECs, after ROCK inhibitor ([1]; siJ-ECs treated with Y-27632 (up to 20 μM) for 1 hr): almost completely diminished

N.N.[Cl][Pt][Cl] [Cisplatin, cisplatin]
increased intratumoral necrosis [2]: 80%
increase in intratumoral accumulation of cisplatin [3]: ~2.0 fold
delay of LLC tumor growth ([4]; RhoJ-KO mice, cisplatin 10 mg/kg IP once every week from tumor volume >100 mm^3): 90%
decrease of LLC tumor growth ([4]; cisplatin 10 mg/kg IP once every week from tumor volume >100 mm^3): 64%

COc1ccc(/C=C\c2cc(OC)c(OC)c(OC)c2)cc1OP(=O)(O)O [CA4P, combretastatin-A4-phosphate]
reduction of vascular density, intratumoral region ([5]; RhoJ-KO mice): 60%
reduction of vascular density, peritumoral region ([5]; RhoJ-KO mice): 59%
reduction of vascular density, intratumoral region ([5]; RhoJ-WT mice): 31%
reduction of vascular density, peritumoral region ([5]; RhoJ-WT mice): 13%
EC tube formation [6]: almost complete disruption
increase in permeability across the EC monolayer [7]: 2.9 fold
reduction of metastasis (inguinal LNs) ([8]; RhoJ-KO mice): 67%
reduction of metastasis (inguinal LNs) ([8]; RhoJ-WT mice): no reduction
RhoA-ROCK signaling pathway (MLC phosphorylation) ([1]; RhoJ knockdown in combination with CA4P 20 nM, 30 min): further activated
additional inhibition in tumor growth ([4]; LLC, RhoJ-KO mice, CA4P 50 mg/kg IP every 2 days): 79%
reduction in tumor growth ([4]; LLC, WT mice, CA4P 50 mg/kg IP every 2 days): 18%
maintenance of tumor growth response to CA4P ([4]; RhoJ-KO mice): durable response
maintenance of tumor growth response to CA4P ([4]; WT mice): not maintained

VEGF-trap: VEGF decoy receptor; recombinant protein from stable CHO cell lines, sequesters VEGF
decrease of tumor vessel density, intratumoral region [5, 9]: ~50%
decrease of tumor vessel density, peritumoral region [5, 9]: ~45%
reduction of tumor vascular density, intratumoral area [5, 10]: 68%
reduction of tumor vascular density, peritumoral area [5, 10]: 66%
decrease of tumor vascular density, intratumoral area [5, 11]: 49%
decrease of tumor vascular density, peritumoral area [5, 11]: 43%
delay of LLC tumor growth ([4]; RhoJ-KO mice, VEGF-trap 25 mg/kg SC, vs Fc): 88%
decrease of LLC tumor growth ([4]; VEGF-trap 25 mg/kg SC, vs Fc): 47%

Source: US20140370079A1, “METHOD FOR TARGETING VASCULAR RHOJ FOR INHIBITING TUMOR ANGIOGENESIS” (Korea Advanced Institute of Science and Technology (KAIST), priority 2013, published 2014)
